Results on six compounds are retold here after PMC6240685, “Strong Inhibitory Effect, Low Cytotoxicity and High Plasma Stability of Steroidal Inhibitors of N-Methyl-D-Aspartate Receptors With C-3 Amide Structural Motif” (Frontiers in Pharmacology, 2018).

Like-named read-outs stand apart in the source and are kept apart here.

The test system of series [1] is HepG2 cells. Put plainly: Mitotoxicity, XTT viability in glucose vs galactose medium. Particulars: for Glu/Gal index (fold change): 24 h, HepG2, index higher than 3 indicates potential mitochondrial toxicity; for IC50: Homo sapiens, HepG2, 24 h. The protocol:
(§1) (A) Hepatotoxicity provoked by compound 4 was assessed after 72 h incubation of HepG2 cells in low glucose medium (5 mM) in the presence of compound 4 (0.25–100 μM). (B) Mitochondrial toxicity was determined after 24 h incubation of HepG2 cells in either high glucose medium (25 mM) or galactose medium (10 mM) in the presence of compound 4 (2.5–150 μM). Cell viabilities were recorded in triplicates in three independent experiments and expressed as percentage of vehicle control ± SD and IC50 values were determined by GraphPad Prism software using following equation: Y = Bottom + (Top–Bottom)/(1 + 10ˆ((LogIC50-X)^∗HillSlope)), where IC50 is the concentration of compound 4 that inhibits cell viability half way between Bottom and Top plateaus, X is compound 4 concentration and HillSlope describes the steepness of the family of curves. […] (C) Concentration-dependent effect on ROS level. HepG2 cells were treated with compound 4 (0.25–100 μM) for 72 h, and then the intracellular level of total ROS in relative fluorescence units (RFU) was detected. The data are presented as the mean ± SD for at least three independent experiments and each experiment was carried out in triplicate. Final concentration of DMSO in samples was 1%. […] Single asterisks (^∗) indicate a significant difference (P < 0.05) compared to 1% DMSO control (one-way ANOVA with Dunnett’s post-test).
(§2) HepG2 cells (ATCC®, United Kingdom) were grown in complete Minimal Essential Medium (EMEM) (5.5 mM glucose) medium, supplemented with 10% (v/v) fetal calf serum, 200 μg/mL of streptomycin, 200 U/mL of penicillin G and 4 mM glutamine. They were cultured under a humidified atmosphere containing 5% CO2 at 37°C.
(§3) The cytotoxicity of the tested compounds was assessed with use of XTT cell proliferation kit II (Roche Diagnostics GmbH, Mannheim, Germany) according to the manufacturer’s instructions. Briefly HepG2 cells were seeded in a 96-well plate at a density of 22,000 cells per well. After 24 h, the tested neurosteroids in a concentration range from 0.5 to 200 μM were added to the culture media and incubated for 72 h before the XTT dye was added. Mitochondrial toxicity was assessed in HepG2 cells using glucose and galactose conditioned media and XTT assay as a read out for cell viability. In brief, cells were seeded onto 96 well, clear bottom tissue culture plates at a density of 22,000 cells/well and left overnight to attach. Six hours prior to the neurosteroids treatment the media was replaced with 100 μL DMEM media containing either glucose (25 mM glucose; 1 mM pyruvate; 2 mM glutamine, 10% FBS) or galactose (10 mM galactose, 1 mM pyruvate, 6 mM glutamine, 10% FBS). After that, the tested neurosteroids in a concentration range from 0.5 to 200 μM were added in the fresh appropriate assay medium (glucose or galactose) and incubated for 24 h before the XTT dye was added. The XTT absorbance was recorded at 495 nm after 1 h incubation with the dye. Compounds were dissolved in DMSO to produce the stock solutions at the concentration of 10 mM, with exception of PAG, 1, 6 (5 mM), and 11 (2.5 mM). Results were expressed as percentages of change in viability compared to appropriate DMSO control. IC50 values were determined by GraphPad Prism version 5.00 for Windows (GraphPad Software, La Jolla, CA, United States). All experiments were done in triplicates in three independent experiments to check the reproducibility.
(In general: Tetrazolium dyes change colour on reduction, which living cells bring about.)

Series [2] concerns HepG2 cells. Description: ROS induction (CM-H2DCFDA). It counts as cell-based. To be noted: Homo sapiens, HepG2, 72 h; read-out: ROS induction EC50. The protocol:
as §1
The effect of neurosteroids on oxidative stress was determined using general oxidative stress indicator CM-H2DCFDA (Thermo Fisher Scientific, Waltham, MA, United States) according to the manufacturer’s instructions. Briefly HepG2 cells were seeded in a 96-well plate at a density of 13,500 cells per well. After 24 h, the tested neurosteroids were added to the culture media and incubated for 72 h. Subsequently, cells were washed with HBSS, treated with 100 μL of 1 μM CM-H2DCF-DA solution in HBSS and incubated for 1 h in the dark at 37°C. Finally, cells were washed three times with HBSS and the fluorescence was measured using 495 excitation and 527 emission in fluorescence microplate reader (Cytation 3, Winooski, VT, United States). IC50 index values were determined by GraphPad Prism version 5.00 for Windows (GraphPad Software, La Jolla, CA, United States).

In a further series the target is T1, GluN1/GluN2B receptors (Rattus norvegicus, UniProt P35439+Q00960).
T1 construct: expressed in transfected cells; host or cells: HEK293
T1 sequence (Q00960 27-1482, other chains not shown): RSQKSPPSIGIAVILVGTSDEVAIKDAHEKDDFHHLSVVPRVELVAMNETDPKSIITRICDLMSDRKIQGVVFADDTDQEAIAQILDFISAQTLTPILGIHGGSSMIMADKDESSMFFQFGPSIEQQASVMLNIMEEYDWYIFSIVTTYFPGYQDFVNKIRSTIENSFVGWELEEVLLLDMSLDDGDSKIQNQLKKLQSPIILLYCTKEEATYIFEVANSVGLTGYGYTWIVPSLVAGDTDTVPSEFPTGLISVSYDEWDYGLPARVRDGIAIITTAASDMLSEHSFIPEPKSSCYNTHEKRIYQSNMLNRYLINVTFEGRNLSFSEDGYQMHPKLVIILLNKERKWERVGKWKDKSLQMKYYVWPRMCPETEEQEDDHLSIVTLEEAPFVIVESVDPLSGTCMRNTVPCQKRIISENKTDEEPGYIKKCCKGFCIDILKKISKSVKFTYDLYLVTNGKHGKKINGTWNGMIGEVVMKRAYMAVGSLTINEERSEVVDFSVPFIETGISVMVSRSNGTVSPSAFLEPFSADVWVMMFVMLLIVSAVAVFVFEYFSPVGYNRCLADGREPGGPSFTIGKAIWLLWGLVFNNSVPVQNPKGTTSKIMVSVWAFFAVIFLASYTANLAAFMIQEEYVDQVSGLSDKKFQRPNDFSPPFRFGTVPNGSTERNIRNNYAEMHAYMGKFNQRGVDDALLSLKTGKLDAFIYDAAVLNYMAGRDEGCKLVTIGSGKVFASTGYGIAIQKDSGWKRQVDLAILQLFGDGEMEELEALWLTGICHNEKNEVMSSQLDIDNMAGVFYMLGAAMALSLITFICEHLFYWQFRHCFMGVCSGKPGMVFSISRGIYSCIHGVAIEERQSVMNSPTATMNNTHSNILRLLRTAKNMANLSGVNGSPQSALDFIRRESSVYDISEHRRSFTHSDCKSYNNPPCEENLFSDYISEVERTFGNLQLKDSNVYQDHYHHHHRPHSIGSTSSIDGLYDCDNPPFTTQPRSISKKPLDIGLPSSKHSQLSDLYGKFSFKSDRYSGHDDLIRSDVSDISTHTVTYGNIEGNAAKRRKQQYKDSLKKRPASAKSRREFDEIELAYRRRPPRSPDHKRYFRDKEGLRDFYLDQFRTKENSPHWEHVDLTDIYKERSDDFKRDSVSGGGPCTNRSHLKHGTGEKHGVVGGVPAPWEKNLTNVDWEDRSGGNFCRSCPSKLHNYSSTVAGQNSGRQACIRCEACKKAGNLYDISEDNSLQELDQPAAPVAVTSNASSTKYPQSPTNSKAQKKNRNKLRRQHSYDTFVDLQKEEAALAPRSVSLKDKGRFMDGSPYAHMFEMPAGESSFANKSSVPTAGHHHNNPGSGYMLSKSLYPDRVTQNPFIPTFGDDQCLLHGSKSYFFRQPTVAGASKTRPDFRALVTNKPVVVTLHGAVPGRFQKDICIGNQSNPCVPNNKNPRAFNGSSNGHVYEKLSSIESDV
Description: Patch-clamp inhibition of glutamate responses of GluN1/GluN2B receptors in transfected HEK293 cells. It counts as cell-based.

Series [3] is described as follows: Plasma stability, rat plasma. It counts as in vitro ADME.
Series [4] deals with HepG2 cells. Description: Hepatotoxicity, XTT viability after 72 h. It counts as cell-based. Particulars: Homo sapiens; 72 h, HepG2, 5.5 mM glucose; read-out: Hepatotoxicity IC50, 5.5 mM glucose. The protocol:
Then, the cell viability (XTT assay) and reactive oxygen species (ROS) induction were evaluated.
as §1, §2, §3

Series [5] can be described thus: Plasma stability, human plasma. The series is classed as in vitro ADME. On the procedure: Then, 37.8 μL of stock solution was added to 1400 μL of human plasma, maintained at 37°C. Aliquots (50 μL) withdrawn at 0, 1, 4, 8, and 24 h were analyzed by HPLC. […] The supernatant was transferred to an autosampler vial and 1 μL was injected onto LC-MS system. The samples were analyzed with an Agilent 1260 HPLC (Agilent Technologies) coupled to ESI-TOF Agilent 6530 (Agilent Technologies) with Agilent Jet Stream Technology. Samples were separated on a Waters ACQUITY UPLC CSH Phenyl-Hexyl (100 × 2.1, 130 Å, 1.7 μm) at a flow rate 0.3 ml/min. […] The mass spectrometry instrument was operated in a negative ion mode with a voltage of +3.00 kV applied to the capillary. The temperature, the flow rate of the nitrogen drying gas, the pressure of the nitrogen nebulizing gas, and the flow rate of the sheath gas were set at 325°C, 10 l/min, 40 psi, 390°C, and 11 l/min, respectively. Results are represented as a percentage of a compound remaining in spiked human plasma.

[6] abbreviates: read-out: Mitotoxicity IC50, 10 mM galactose.
Where [7] appears, read: read-out: Mitotoxicity IC50, 25 mM glucose.
Where [8] appears, read: as repeated in Table 2, read-out: IC50.
Where [9] appears, read: current responses to glutamate, HEK293, IC50 from single steroid dose, Hill coefficient fixed at 1.2, read-out: IC50 ± SD.

Broadly, the IC50 is the concentration at which inhibition is half-maximal. As usually defined, the EC50 is the concentration at which the effect is half-maximal. By amount remaining is commonly meant the share of the starting amount still present when the sample was taken. For `C[C@@]12CCC[C@H]1[C@@H]1CC[C@@H]3C[C@H](NC(=O)CC(=O)O)CC[C@]3(C)[C@H]1CC2` [Compound 2, 3-(((3R,5R,8S,9S,10S,13S,14S)-10,13-dimethylhexadecahydro-1H-cyclopenta[a]phenanthren-3-yl)amino)-3-oxopropanoic acid], the “Glu/Gal index (fold change)” value with HepG2 cells [1] was 1.32. The IC50 was 174 ± 12 µM in the series with HepG2 cells [1] (setting [6]), more than 200 µM with HepG2 cells [1] (setting [7]) and 148 ± 14 µM with HepG2 cells [4]. The EC50 in the series on HepG2 cells [2] worked out at 165 ± 18 µM. Also, at GluN1/GluN2B receptors, the ΔGexp was -6.59 kcal/mol. Besides, the share remaining at 8 h, 42.1 μg/mL in series [3] (rat, plasma) came to 100%; in series [5] (human, plasma) it was 98%.
For `C[C@@]12CCC[C@H]1[C@@H]1CC[C@@H]3C[C@H](NC(=O)C(=O)O)CC[C@]3(C)[C@H]1CC2` [Compound 1, 2-(((3R,5R,8S,9S,10S,13S,14S)-10,13-dimethylhexadecahydro-1H-cyclopenta[a]phenanthren-3-yl)amino)-2-oxoacetic acid], the “Glu/Gal index (fold change)” value in the series with HepG2 cells [1] is on record as 1.97. In addition, the IC50 with HepG2 cells [1] (setting [6]) came to 72 ± 9 µM; in the series with HepG2 cells [1] (setting [7]) it was 142 ± 12 µM; at GluN1/GluN2B receptors (setting [8]) it was 21.7 µM; on GluN1/GluN2B receptors (setting [9]) it was 21.7 ± 4.8 µM; in the series on HepG2 cells [4] it was 42 ± 7 µM. For the same compound, in the series on HepG2 cells [2], the EC50 came to 52 ± 6 µM. At GluN1/GluN2B receptors, the ΔGexp is -6.39 kcal/mol. Also, on GluN1/GluN2B receptors (current responses to glutamate, HEK293, IC50 from single steroid dose, Hill coefficient fixed at 1.2), the “IC50 ± SD” value is reported as “least inhibitory activity”. For the same compound, the share remaining at 8 h, 42.1 μg/mL amounted to 100% in series [3] (rat plasma, 8 h, 37°C, read-out: Plasma stability (% remaining after 8 h), Rat) and 100% in series [5] (human plasma, 8 h, 37°C, read-out: Plasma stability (% remaining after 8 h), Human).
Turning to `CC(C)(C)OC(=O)N[C@@H](CCC(=O)O)C(=O)N[C@@H]1CC[C@@]2(C)[C@H](CC[C@@H]3[C@@H]4CCC[C@@]4(C)CC[C@@H]32)C1` [Compound 7, (S)-4-((tert-butoxycarbonyl)amino)-5-(((3R,5R,8R,9S,10S,13S,14S)-10,13-dimethylhexadecahydro-1H-cyclopenta[a]phenanthren-3-yl)amino)-5-oxopentanoic acid], the IC50 was more than 200 µM in the series on HepG2 cells [1] (setting [6]); more than 200 µM in the series with HepG2 cells [1] (setting [7]); 5.4 µM on GluN1/GluN2B receptors (setting [8]); 5.4 ± 2.4 µM on GluN1/GluN2B receptors (setting [9]); more than 200 µM with HepG2 cells [4]. In addition, in the series with HepG2 cells [2], the concentration for a half-maximal effect (EC50) was more than 200 µM. At GluN1/GluN2B receptors, this compound displayed a ΔGexp of -7.22 kcal/mol. Also, the fraction remaining at 8 h, 42.1 μg/mL in series [3] (rat, plasma) was 94%; in series [5] (human, plasma), 97%.
Consider `CS(=O)(=O)Nc1ccc([N+](=O)[O-])cc1Oc1ccccc1` [Nimesulide, nimesulide, reference compound], for which the “Glu/Gal index (fold change)” value with HepG2 cells [1] turned out to be 3.88. For the same compound, the IC50 with HepG2 cells [1] (setting [6]) worked out at 18 ± 4 µM; in the series on HepG2 cells [1] (setting [7]), 72 ± 8 µM; with HepG2 cells [4], 2.2 ± 0.3 µM. The EC50 in the series with HepG2 cells [2] stood at 3.5 ± 0.5 µM.
Regarding `C[C@@]12CCC[C@H]1[C@@H]1CC[C@@H]3C[C@H](NC(=O)[C@@H](N)CCC(=O)O)CC[C@]3(C)[C@H]1CC2` [Compound 8, (S)-4-amino-5-(((3R,5R,8S,9S,10S,13S,14S)-10,13-dimethylhexadecahydro-1H-cyclopenta[a]phenanthren-3-yl)amino)-5-oxopentanoic acid], in the series with HepG2 cells [1], the “Glu/Gal index (fold change)” value is given as 1.04. The 50% inhibitory concentration (IC50) with HepG2 cells [1] (setting [6]) amounted to 94 ± 14 µM; with HepG2 cells [1] (setting [7]) it was 98 ± 11 µM; on GluN1/GluN2B receptors (setting [8]) it was 1.4 µM; on GluN1/GluN2B receptors (setting [9]), 1.4 ± 0.2 µM; in the series on HepG2 cells [4] it was 65 ± 5 µM. Further, in the series with HepG2 cells [2], the EC50 came to 71 ± 9 µM. This compound came in with a ΔGexp on GluN1/GluN2B receptors of -8.02 kcal/mol. Further, the share remaining at 8 h, 42.1 μg/mL in series [3] (rat, plasma) came to 95%; in series [5] (human, plasma), 98%.
In the case of `C[C@@]12CCC[C@H]1[C@@H]1CC[C@@H]3C[C@H](NC(=O)CCC(=O)O)CC[C@]3(C)[C@H]1CC2` [Compound 3, 4-(((3R,5R,8S,9S,10S,13S,14S)-10,13-dimethylhexadecahydro-1H-cyclopenta[a]phenanthren-3-yl)amino)-4-oxobutanoic acid], the IC50 was more than 200 µM in the series on HepG2 cells [1] (setting [6]); more than 200 µM in the series on HepG2 cells [1] (setting [7]); 11.2 µM on GluN1/GluN2B receptors (setting [8]); 11.2 ± 7.2 µM at GluN1/GluN2B receptors (setting [9]); more than 200 µM in the series on HepG2 cells [4]. Moreover, the EC50 in the series with HepG2 cells [2] was more than 200 µM. At GluN1/GluN2B receptors, this compound had a ΔGexp of -6.78 kcal/mol. In addition, the fraction remaining at 8 h, 42.1 μg/mL was determined as 100% in series [3] (rat, plasma) and 98% in series [5] (human, plasma).
